{"source": "patent US20250270217A1", "about": "“IMIDAZ0[1,2-A]PYRIMIDINE-5(1 H)-ONES HAVING A COVALENT WARHEAD AT THE 3-POSITION AS WRN INHIBITORS” (Incyte Corporation, priority 2023, published 2025)", "key": {"WRN [1]": {"target": "T1, WRN (Homo sapiens, UniProt Q14191)", "T1 construct": "A His-tagged construct of WRN (AA S2-S1235) was produced and used for the ATPase assay; His; made in house; host or cells: Sf9 insect cells (baculovirus)", "T1 sequence (Q14191 2-1235)": "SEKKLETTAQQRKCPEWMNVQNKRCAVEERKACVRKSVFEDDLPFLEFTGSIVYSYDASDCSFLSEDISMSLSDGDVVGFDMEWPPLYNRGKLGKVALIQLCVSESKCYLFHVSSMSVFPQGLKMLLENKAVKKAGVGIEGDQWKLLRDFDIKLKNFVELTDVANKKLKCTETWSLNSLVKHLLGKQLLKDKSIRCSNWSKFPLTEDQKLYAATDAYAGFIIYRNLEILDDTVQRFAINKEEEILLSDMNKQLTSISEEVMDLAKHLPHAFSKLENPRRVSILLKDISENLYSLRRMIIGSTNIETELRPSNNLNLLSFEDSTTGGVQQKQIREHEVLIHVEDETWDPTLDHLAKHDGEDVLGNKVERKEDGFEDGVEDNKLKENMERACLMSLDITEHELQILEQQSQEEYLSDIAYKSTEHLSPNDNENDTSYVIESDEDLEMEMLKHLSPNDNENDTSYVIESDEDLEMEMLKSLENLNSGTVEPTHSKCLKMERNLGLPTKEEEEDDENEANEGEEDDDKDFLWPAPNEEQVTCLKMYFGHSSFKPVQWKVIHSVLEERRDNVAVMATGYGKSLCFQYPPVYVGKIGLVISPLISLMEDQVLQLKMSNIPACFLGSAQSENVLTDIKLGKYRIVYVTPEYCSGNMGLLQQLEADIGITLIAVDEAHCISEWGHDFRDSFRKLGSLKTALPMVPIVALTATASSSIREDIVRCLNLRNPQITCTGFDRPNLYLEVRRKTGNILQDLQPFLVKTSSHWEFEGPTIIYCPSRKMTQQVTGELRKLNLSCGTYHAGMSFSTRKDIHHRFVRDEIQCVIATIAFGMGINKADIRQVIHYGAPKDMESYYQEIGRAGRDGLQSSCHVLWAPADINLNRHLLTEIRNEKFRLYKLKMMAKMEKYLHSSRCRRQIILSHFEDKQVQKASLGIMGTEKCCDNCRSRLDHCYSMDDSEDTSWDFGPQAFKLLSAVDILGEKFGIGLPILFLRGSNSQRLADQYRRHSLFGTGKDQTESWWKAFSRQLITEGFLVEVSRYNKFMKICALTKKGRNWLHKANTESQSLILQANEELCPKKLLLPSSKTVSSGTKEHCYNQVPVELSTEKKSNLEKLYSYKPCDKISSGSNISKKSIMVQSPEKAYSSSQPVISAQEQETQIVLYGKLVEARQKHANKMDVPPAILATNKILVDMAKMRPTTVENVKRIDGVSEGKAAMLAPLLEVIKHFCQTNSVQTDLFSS", "assay": "WRN ATPase activity assay (ADP-Glo)", "assay_type": "biochemical", "details": "1-hr pre-incubation with enzyme; 100 μM ATP, 25 nM forked dsDNA, 1 nM WRN; geometric mean of at least 2 replicates", "method": "Compounds of the Examples were tested for WRN ATPase activity. WRN ATPase activity catalyzes ATP hydrolysis to produce ADP and phosphate. DNA encoding the target protein, 6×HIS-TEV-WRN-517-945, was produced, cloned and transfected as detailed in Example D. The amount of ADP produced was measured using ADP-Glo™ Kinase Assay kit from Promega Corporation in a Greiner white regular volume 384 wells assay plate (Greiner #781075). Data was normalized to a standard curve generated using various ADP concentrations and the corresponding luminescent signal intensities at each concentration. The assay conditions were optimized for enzyme concentration (WRN), substrate concentrations (ATP & dsDNA), and the linearity of the ATPase reaction, in the following assay buffer: 50 mM Tris-HCl, pH-7.5, 2 mM MgCl2, 50 mM NaCl, 1 mM EGTA, 0.01% P-20, 0.05% BSA, and 2 mM DTT prepared with nuclease free water.\nA serial dilution (1:3 scheme) of the compounds were prepared in neat DMSO, with 100 nL of the compounds dispensed in the 384 wells assay plate. An 1-hr pre-incubation of the compounds with enzyme was included. A His-tagged construct of WRN (AA S2-S1235) was produced and used for the ATPase assay. Maximum inhibition control wells were set up with the addition of only assay buffer, and no inhibition control wells were set up with neat DMSO without test compounds. The reaction was initiated by addition of 5 μL substrate mix (200 μM ultrapure ATP, and 50 nM dsDNA prepared in assay buffer) and incubated at 25° C. for 35 min. A forked dsDNA oligomer substrate was prepared by annealing equal amounts of oligo GPat-1 ([BHQ2][…]) and oligo GPat-2 ([…][TAM]) and was used as dsDNA substrate for WRN ATPase assay. A typical ATPase reaction consists of 25 nM forked dsDNA, 100 μM ATP, and 1 nM WRN prepared in assay buffer. The WRN ATPase reaction was stopped by the addition of 5 μL of ADP-Glo Reagent from ADP-Glo™ Kinase Assay kit and incubated for 40 min to deplete the unreacted ATP. Afterwards, 5 μL of Kinase Detection Reagent from the ADP-Glo™ Kinase Assay kit was added and incubated for 1 hr for the development of luminescence signal.\nLuminesce signals were measured on BMG PHERAstar FSX using luminescence protocol. Data analysis was carried out using Genedata software following % of control normalization. Fitting parameters include dose response IC50, Hill slope (n), maximum inhibition (S∞), and minimum inhibition (S0). The reported IC50 values for compounds in this invention are the geometric means of at least 2 independent replicates."}, "WRN [2]": {"target": "T1, WRN", "assay": "WRN Helicase activity assay (fluorescence DNA unwinding)", "assay_type": "biochemical", "details": "1-hr pre-incubation with enzyme; 100 μM ATP, 25 nM forked dsDNA, 1 nM WRN; geometric mean of at least 2 replicates", "method": "Compounds of the examples were tested for WRN helicase activity. DNA encoding the target protein, 6×HIS-TEV-WRN-517-945, was produced, cloned and transfected as detailed in Example D. To determine the inhibitory properties of the compounds, a 384 wells plate-based Helicase assay was set up to measure the extent of DNA unwinding (Helicase) activity of WRN. The WRN Helicase assay was designed to measure increase in fluorescence signal using a fluorescence based, donor-quencher paired forked dsDNA oligomer substrate (custom synthesis from Sigma-Aldrich) prepared by annealing equal amounts of oligo GPat-1 ([BHQ2][…]) and oligo GPat-2 ([…][TAM]). Continuous measurement of fluorescent signal was used to optimize the buffer conditions, concentration of enzyme (WRN), concentration of substrates (ATP & dsDNA), and the linearity of the Helicase reaction. All solutions were prepared in the following assay buffer: 50 mM Tris-HCl, pH-7.5, 2 mM MgCl2, 50 mM NaCl, 1 mM EGTA, 0.01% P-20, 0.05% BSA, and 2 mM DTT prepared with nuclease free water.\nA serial dilution (1:3 scheme) of the compounds was prepared in neat DMSO and 100 nL of the compounds was dispensed in the Greiner black low volume (Greiner #784076) 384 wells assay plate. An 1-hr pre-incubation of the compounds with enzyme was included. A His-tagged construct of WRN (AA S2-S1235) was produced and used for the ATPase assay. Maximum inhibition control wells were set up with the addition of only assay buffer, and no inhibition control wells were set up with neat DMSO without test compounds. The reaction was initiated by addition of 5 μL substrate mix (200 μM ultrapure ATP, and 50 nM dsDNA prepared in assay buffer) and incubated at 25° C. for 35 min. A typical Helicase reaction consists of 25 nM forked dsDNA, 100 μM ATP, and 1 nM WRN prepared in assay buffer. The WRN Helicase reaction was quenched by the addition of 5 μL ‘STOP’ solution containing 100 mM EDTA (final EDTA concentration 33.33 mM) prepared in assay buffer. The plates were read on BMG PHERAstar FSX using 540/590 module to measure an increase of fluorescence. Data analysis was carried out using the Genedata software following % of control normalization. Fitting parameters include dose response IC50, Hill slope (n), maximum inhibition (S∞), and minimum inhibition (S0). The reported IC50 values for compounds in this invention are the geometric means of at least 2 independent replicates."}}}
{"smiles": "C=CC(=O)Nc1ccccc1-c1c(CC)nc2n(CC(=O)Nc3ccc(C(F)(F)F)cc3)c(C)cn2c1=O", "note": "[Example 1, N-(2-(7-Ethyl-2-methyl-5-oxo-1-(2-oxo-2-((4-(trifluoromethyl)phenyl)amino)ethyl)-1,5-dihydroimidazo[1,2-a]pyrimidin-6-yl)phenyl)acrylamide]", "values": [{"measurement": "IC50", "setting": "WRN [1]", "value": "< 0.1", "unit": "µM"}, {"measurement": "IC50", "setting": "WRN [2]", "value": "< 0.1", "unit": "µM"}]}
{"smiles": "C=CC(=O)Nc1ccccc1-c1c(CC)nc2n(CC(=O)Nc3ccc(C(F)(F)F)cc3Cl)c(C)cn2c1=O", "note": "[Example 2, N-(2-(1-(2-((2-Chloro-4-(trifluoromethyl)phenyl)amino)-2-oxoethyl)-7-ethyl-2-methyl-5-oxo-1,5-dihydroimidazo[1,2-a]pyrimidin-6-yl)phenyl)acrylamide]", "values": [{"measurement": "IC50", "setting": "WRN [1]", "value": "< 0.1", "unit": "µM"}, {"measurement": "IC50", "setting": "WRN [2]", "value": "< 0.1", "unit": "µM"}]}
{"smiles": "C=CC(=O)Nc1cc(S(C)(=O)=O)ccc1-c1c(CC)nc2n(CC(=O)Nc3ccc(C(F)(F)F)cc3)c(C)cn2c1=O", "note": "[Example 3, N-(2-(7-Ethyl-2-methyl-5-oxo-1-(2-oxo-2-((4-(trifluoromethyl)phenyl)amino)ethyl)-1,5-dihydroimidazo[1,2-a]pyrimidin-6-yl)-5-(methylsulfonyl)phenyl)acrylamide]", "values": [{"measurement": "IC50", "setting": "WRN [1]", "value": "< 0.1", "unit": "µM"}, {"measurement": "IC50", "setting": "WRN [2]", "value": "< 0.1", "unit": "µM"}]}
{"smiles": "C=CC(=O)Nc1ncccc1-c1c(CC)nc2n(CC(=O)Nc3ccc(C(F)(F)F)cc3)c(C)cn2c1=O", "note": "[Example 4, N-(3-(7-Ethyl-2-methyl-5-oxo-1-(2-oxo-2-((4-(trifluoromethyl)phenyl)amino)ethyl)-1,5-dihydroimidazo[1,2-a]pyrimidin-6-yl)pyridin-2-yl)acrylamide]", "values": [{"measurement": "IC50", "setting": "WRN [1]", "value": "< 0.1", "unit": "µM"}, {"measurement": "IC50", "setting": "WRN [2]", "value": "< 0.1", "unit": "µM"}]}
{"smiles": "C=CC(=O)Nc1cc(-c2cnn(C)c2)ccc1-c1c(CC)nc2n(CC(=O)Nc3ccc(C(F)(F)F)cc3)c(C)cn2c1=O", "note": "[Example 5, N-(2-(7-Ethyl-2-methyl-5-oxo-1-(2-oxo-2-((4-(trifluoromethyl)phenyl)amino)ethyl)-1,5-dihydroimidazo[1,2-a]pyrimidin-6-yl)-5-(1-methyl-1H-pyrazol-4-yl)phenyl)acrylamide]", "values": [{"measurement": "IC50", "setting": "WRN [1]", "value": "< 0.1", "unit": "µM"}, {"measurement": "IC50", "setting": "WRN [2]", "value": "< 0.1", "unit": "µM"}]}
{"smiles": "C=CS(=O)(=O)Nc1ccccc1-c1c(CC)nc2n(CC(=O)Nc3ccc(C(F)(F)F)cc3)c(C)cn2c1=O", "note": "[Example 6, 2-(7-Ethyl-2-methyl-5-oxo-6-(2-(vinylsulfonamido)phenyl)imidazo[1,2-a]pyrimidin-1(5H)-yl)-N-(4-(trifluoromethyl)phenyl)acetamide]", "values": [{"measurement": "IC50", "setting": "WRN [1]", "value": "< 0.1", "unit": "µM"}, {"measurement": "IC50", "setting": "WRN [2]", "value": "< 0.1", "unit": "µM"}]}
{"smiles": "CCc1nc2n(CC(=O)Nc3ccc(C(F)(F)F)cc3)c(C)cn2c(=O)c1-c1ccccc1NC(=O)CCl", "note": "[Example 7, 2-Chloro-N-(2-(7-ethyl-2-methyl-5-oxo-1-(2-oxo-2-((4-(trifluoromethyl)phenyl)amino)ethyl)-1,5-dihydroimidazo[1,2-a]pyrimidin-6-yl)phenyl)acetamide]", "values": [{"measurement": "IC50", "setting": "WRN [1]", "value": "< 0.1", "unit": "µM"}, {"measurement": "IC50", "setting": "WRN [2]", "value": "< 0.1", "unit": "µM"}]}
{"smiles": "C=CC(=O)Nc1cc(C(=O)NC2CC2)ccc1-c1c(CC)nc2n(CC(=O)Nc3ccc(C(F)(F)F)cc3)c(C)cn2c1=O", "note": "[Example 8, 3-Acrylamido-N-cyclopropyl-4-(7-ethyl-2-methyl-5-oxo-1-(2-oxo-2-((4-(trifluoromethyl)phenyl)amino)ethyl)-1,5-dihydroimidazo[1,2-a]pyrimidin-6-yl)benzamide]", "values": [{"measurement": "IC50", "setting": "WRN [1]", "value": "< 0.1", "unit": "µM"}, {"measurement": "IC50", "setting": "WRN [2]", "value": "< 0.1", "unit": "µM"}]}
{"smiles": "C=CC(=O)Nc1cc(C(=O)NC2CC2)ccc1-c1c(CC)nc2n(CC(=O)Nc3ccc(F)cc3Cl)c(C)cn2c1=O", "note": "[Example 9, 3-Acrylamido-4-(1-(2-((2-chloro-4-fluorophenyl)amino)-2-oxoethyl)-7-ethyl-2-methyl-5-oxo-1,5-dihydroimidazo[1,2-a]pyrimidin-6-yl)-N-cyclopropylbenzamide]", "values": [{"measurement": "IC50", "setting": "WRN [1]", "value": "< 0.1", "unit": "µM"}, {"measurement": "IC50", "setting": "WRN [2]", "value": "< 0.1", "unit": "µM"}]}
{"smiles": "C=CC(=O)Nc1cc(C(=O)NC2(C)CC2)ccc1-c1c(CC)nc2n(CC(=O)Nc3ccc(C(F)(F)F)cc3)c(C)cn2c1=O", "note": "[Example 10, 3-Acrylamido-4-(7-ethyl-2-methyl-5-oxo-1-(2-oxo-2-((4-(trifluoromethyl)phenyl)amino)ethyl)-1,5-dihydroimidazo[1,2-a]pyrimidin-6-yl)-N-(1-methylcyclopropyl)benzamide]", "values": [{"measurement": "IC50", "setting": "WRN [1]", "value": "< 0.1", "unit": "µM"}, {"measurement": "IC50", "setting": "WRN [2]", "value": "< 0.1", "unit": "µM"}]}
{"smiles": "C=CC(=O)Nc1cc(C(=O)NCC(F)F)ccc1-c1c(CC)nc2n(CC(=O)Nc3ccc(C(F)(F)F)cc3)c(C)cn2c1=O", "note": "[Example 11, 3-Acrylamido-N-(2,2-difluoroethyl)-4-(7-ethyl-2-methyl-5-oxo-1-(2-oxo-2-((4-(trifluoromethyl)phenyl)amino)ethyl)-1,5-dihydroimidazo[1,2-a]pyrimidin-6-yl)benzamide]", "values": [{"measurement": "IC50", "setting": "WRN [1]", "value": "< 0.1", "unit": "µM"}, {"measurement": "IC50", "setting": "WRN [2]", "value": "< 0.1", "unit": "µM"}]}
{"smiles": "C#CCNC(=O)c1ccc(-c2c(CC)nc3n(CC(=O)Nc4ccc(C(F)(F)F)cc4)c(C)cn3c2=O)c(NC(=O)C=C)c1", "note": "[Example 12, 3-Acrylamido-4-(7-ethyl-2-methyl-5-oxo-1-(2-oxo-2-((4-(trifluoromethyl)phenyl)amino)ethyl)-1,5-dihydroimidazo[1,2-a]pyrimidin-6-yl)-N-(prop-2-yn-1-yl)benzamide]", "values": [{"measurement": "IC50", "setting": "WRN [1]", "value": "< 0.1", "unit": "µM"}, {"measurement": "IC50", "setting": "WRN [2]", "value": "< 0.1", "unit": "µM"}]}
{"smiles": "C=CC(=O)Nc1cc(C(=O)NC2CCOCC2)ccc1-c1c(CC)nc2n(CC(=O)Nc3ccc(C(F)(F)F)cc3)c(C)cn2c1=O", "note": "[Example 13, 3-Acrylamido-4-(7-ethyl-2-methyl-5-oxo-1-(2-oxo-2-((4-(trifluoromethyl)phenyl)amino)ethyl)-1,5-dihydroimidazo[1,2-a]pyrimidin-6-yl)-N-(tetrahydro-2H-pyran-4-yl)benzamide]", "values": [{"measurement": "IC50", "setting": "WRN [1]", "value": "< 0.1", "unit": "µM"}, {"measurement": "IC50", "setting": "WRN [2]", "value": "< 0.1", "unit": "µM"}]}
{"smiles": "C=CC(=O)Nc1ccccc1-c1c(CC)nc2n(CC(=O)Nc3ccc(C(F)(F)F)cc3)c(C)c(C3CC3)n2c1=O", "note": "[Example 14, N-(2-(3-Cyclopropyl-7-ethyl-2-methyl-5-oxo-1-(2-oxo-2-((4-(trifluoromethyl)phenyl)amino)ethyl)-1,5-dihydroimidazo[1,2-a]pyrimidin-6-yl)phenyl)acrylamide]", "values": [{"measurement": "IC50", "setting": "WRN [1]", "value": "< 0.1", "unit": "µM"}, {"measurement": "IC50", "setting": "WRN [2]", "value": "< 0.1", "unit": "µM"}]}
{"smiles": "C=CC(=O)Nc1ccccc1-c1c(CC)nc2n(CC(=O)Nc3ccc(C(F)(F)F)cc3)c(C)c(-c3ccccc3)n2c1=O", "note": "[Example 15, N-(2-(7-Ethyl-2-methyl-5-oxo-1-(2-oxo-2-((4-(trifluoromethyl)phenyl)amino)ethyl)-3-phenyl-1,5-dihydroimidazo[1,2-a]pyrimidin-6-yl)phenyl)acrylamide]", "values": [{"measurement": "IC50", "setting": "WRN [1]", "value": "< 0.1", "unit": "µM"}, {"measurement": "IC50", "setting": "WRN [2]", "value": "< 0.1", "unit": "µM"}]}
